# Results as given in patent publication US20240150377A1, “MODULATORS OF CYSTIC FIBROSIS TRANSMEMBRANE CONDUCTANCE REGULATOR” (VERTEX PHARMACEUTICALS INCORPORATED, priority 2020, published 2024).
# Biological target: T1, CFTR (Homo sapiens, UniProt P13569, DEL508-508)
# T1 construct: endogenous in cells; host or cells: primary human bronchial epithelial cells from CF subjects (F508del/MF-HBE), differentiated at air-liquid interface
# Experiment: HBE2 assay: Ussing chamber assay of CFTR-mediated short-circuit currents
# Format: cell-based
# Details: 3 μM corrector; F508del/MF-HBE cells; with 44 nM potentiator, 18-24 hours, 20% human serum
# Protocol: Ussing Chamber Assay of CFTR-Mediated Short-Circuit Currents
# After four days the apical media was removed, and the cells were grown at an air liquid interface for >14 days prior to use.
# To isolate the CFTR-mediated short-circuit (ISC) current, F508del/MF-HBE grown on Costar® Snapwell™ cell culture inserts were mounted in an Ussing chamber and the transepithelial ISC was measured under voltage-clamp recording conditions (Vhold=0 mV) at 37° C. […] The CFTR-mediated ISC (μA/cm^2) for each condition was determined from the peak forskolin response to the steady-state current following inhibition.
# Identification of Corrector Compounds
# The activity of the CFTR corrector compounds on the CFTR-mediated ISC was determined in Ussing chamber studies as described above.
# T1 sequence (P13569 with tags, fused parts or gaps DEL508-508): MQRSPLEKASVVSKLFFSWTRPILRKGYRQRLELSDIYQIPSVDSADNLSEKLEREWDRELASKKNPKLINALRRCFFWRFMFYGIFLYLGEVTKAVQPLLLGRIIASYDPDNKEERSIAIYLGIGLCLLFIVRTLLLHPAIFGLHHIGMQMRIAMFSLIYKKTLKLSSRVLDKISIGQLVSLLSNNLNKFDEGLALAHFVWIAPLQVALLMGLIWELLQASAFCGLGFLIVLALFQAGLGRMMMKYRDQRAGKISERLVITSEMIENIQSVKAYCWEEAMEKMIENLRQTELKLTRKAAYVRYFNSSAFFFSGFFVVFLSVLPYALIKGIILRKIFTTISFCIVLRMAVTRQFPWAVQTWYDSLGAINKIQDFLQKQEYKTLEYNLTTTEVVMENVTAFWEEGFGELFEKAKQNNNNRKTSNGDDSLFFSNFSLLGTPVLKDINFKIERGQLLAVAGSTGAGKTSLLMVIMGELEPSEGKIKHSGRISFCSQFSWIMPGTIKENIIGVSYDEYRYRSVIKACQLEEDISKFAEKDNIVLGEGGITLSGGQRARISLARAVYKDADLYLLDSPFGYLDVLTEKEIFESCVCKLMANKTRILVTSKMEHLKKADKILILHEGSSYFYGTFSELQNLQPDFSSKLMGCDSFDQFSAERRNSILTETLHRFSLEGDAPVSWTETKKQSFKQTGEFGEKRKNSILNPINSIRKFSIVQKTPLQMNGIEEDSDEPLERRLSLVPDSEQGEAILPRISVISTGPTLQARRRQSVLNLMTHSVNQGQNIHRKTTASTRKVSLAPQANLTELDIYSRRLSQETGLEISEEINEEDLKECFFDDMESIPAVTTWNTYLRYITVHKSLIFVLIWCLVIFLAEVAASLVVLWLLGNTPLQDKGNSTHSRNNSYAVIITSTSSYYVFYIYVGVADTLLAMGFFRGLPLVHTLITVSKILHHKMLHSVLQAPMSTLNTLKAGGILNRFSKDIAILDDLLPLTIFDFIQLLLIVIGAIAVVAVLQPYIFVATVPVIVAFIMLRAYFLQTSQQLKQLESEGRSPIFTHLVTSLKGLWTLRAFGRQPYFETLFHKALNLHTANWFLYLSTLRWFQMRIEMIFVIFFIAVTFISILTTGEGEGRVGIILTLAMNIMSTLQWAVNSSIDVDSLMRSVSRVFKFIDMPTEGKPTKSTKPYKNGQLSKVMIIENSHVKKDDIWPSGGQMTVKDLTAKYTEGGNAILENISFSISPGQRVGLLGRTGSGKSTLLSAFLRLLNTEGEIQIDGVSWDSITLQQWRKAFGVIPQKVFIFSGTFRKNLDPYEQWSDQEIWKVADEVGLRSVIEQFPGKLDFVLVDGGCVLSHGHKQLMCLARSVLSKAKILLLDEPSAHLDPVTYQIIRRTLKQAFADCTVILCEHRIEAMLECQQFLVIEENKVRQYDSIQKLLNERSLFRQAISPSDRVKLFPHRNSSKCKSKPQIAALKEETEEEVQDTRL
row,SMILES,HBE2 Activity at 3 μM (%)
1,CO[C@H](C)[C@@H]1CCCN1c1cncc(CN2C(=O)c3cccc(c3)S(=O)(=O)Nc3nc(cc(-c4c(C)cccc4C)n3)OC[C@H]2CCC(C)(C)C)n1 [Compound 1935],+++ (+++ is >60+)
2,Cc1cccc(C)c1-c1cc2nc(n1)NS(=O)(=O)c1cccc(c1)C(=O)N(Cc1cccc(N(C)C(C)C)n1)[C@H](CCC(C)(C)C)CO2 [Compound 1790],+++ (+++ is >60+)
3,Cc1cccc(C)c1-c1cc2nc(n1)NS(=O)(=O)c1cccc(c1)C(=O)N(Cc1cncc(N3CC[C@H]3C)n1)[C@H](COC1CC1)CO2 [Compound 1918],+++ (+++ is >60+)
4,Cc1cccc(C)c1-c1cc2nc(n1)NS(=O)(=O)c1cccc(c1)C(=O)N(Cc1cncc(N3CCO[C@@H](C)[C@H]3C)n1)[C@H](CC(C)(C)C)CO2 [Compound 1761],+++ (+++ is >60+)
5,Cc1cccc(C)c1-c1cc2nc(n1)NS(=O)(=O)c1cccc(c1)C(=O)N(Cc1ncc(OC(C)C)cn1)[C@H](COC(C)C)CO2 [Compound 1957],+++ (+++ is >60+)
6,Cc1cccc(C)c1-c1cc2nc(n1)NS(=O)(=O)c1cccc(c1)C(=O)N(Cc1cncc(N(C)C3CC(F)(F)C3)n1)[C@H](COC(C)C)CO2 [Compound 1946],+++ (+++ is >60+)
7,Cc1cccc(C)c1-c1cc2nc(n1)NS(=O)(=O)c1cccc(c1)C(=O)N(Cc1cncc(N(C)CC(C)C)n1)[C@H](COC1CC1)CO2 [Compound 1903],+++ (+++ is >60+)
8,Cc1cccc(C)c1-c1cc2nc(n1)NS(=O)(=O)c1cccc(c1)C(=O)N(Cc1cncc(N3[C@H](C)CC[C@@H]3C)n1)[C@H](COC(C)C)CO2 [Compound 1950],+++ (+++ is >60+)
9,Cc1cccc(C)c1-c1cc2nc(n1)NS(=O)(=O)c1cccc(c1)C(=O)N(Cc1cncc(N(C)[C@H]3C[C@H](F)C3)n1)[C@H](CCC(C)C)CO2 [Compound 1914],+++ (+++ is >60+)
10,"Cc1cccc(C)c1-c1cc2nc(n1)NS(=O)(=O)c1cccc(c1)C(=O)N(Cc1cncc(N(C)C3CCC3)n1)[C@H](COC(C)C)CO2 [Compound 1324, (11R)-12-[[6-[Cyclobutyl(methyl)amino]pyrazin-2-yl]methyl]-6-(2,6-dimethylphenyl)-11-(isopropoxymethyl)-2,2-dioxo-9-oxa-2λ^6-thia-3,5,12,19-tetrazatricyclo[12.3.1.14,8]nonadeca-1(18),4(19),5,7,14,16-hexaen-13-one]",+++ (+++ is >60+)
11,Cc1cccc(C)c1-c1cc2nc(n1)NS(=O)(=O)c1cccc(c1)C(=O)N(Cc1cncc(N3CC[C@@H]3C(C)C)n1)[C@H](CC1CCCCC1)CO2 (stereo in doubt) [Compound 1887],+++ (+++ is >60+)
12,Cc1cccc(C)c1-c1cc2nc(n1)NS(=O)(=O)c1cccc(c1)C(=O)N(Cc1cncc(N(C)C)n1)[C@H](CCC(C)(C)C)CO2 [Compound 1806],+++ (+++ is >60+)
13,Cc1cccc(C)c1-c1cc2nc(n1)NS(=O)(=O)c1cccc(c1)C(=O)N(Cc1cccc(N3CCC[C@H]3C)n1)[C@H](CCC(C)(C)C)CO2 [Compound 1789],+++ (+++ is >60+)
14,Cc1cccc(C)c1-c1cc2nc(n1)NS(=O)(=O)c1cccc(c1)C(=O)N(Cc1cncc(N3CCC[C@H]3C)n1)[C@H](CC1CCCC1)CO2 [Compound 1888],+++ (+++ is >60+)
15,Cc1cccc(C)c1-c1cc2nc(n1)NS(=O)(=O)c1cccc(c1)C(=O)N(Cc1cncc(N3CCC[C@@H]3C)n1)[C@H](COC1CC1)CO2 (stereo in doubt) [Compound 1892],+++ (+++ is >60+)
16,COCCN(C)c1cncc(CN2C(=O)c3cccc(c3)S(=O)(=O)Nc3nc(cc(-c4c(C)cccc4C)n3)OC[C@H]2CCC(C)(C)C)n1 [Compound 1812],+++ (+++ is >60+)
17,CCN(c1cncc(CN2C(=O)c3cccc(c3)S(=O)(=O)Nc3nc(cc(-c4c(C)cccc4C)n3)OC[C@H]2CCC(C)(C)C)n1)C(C)C [Compound 1850],+++ (+++ is >60+)
18,Cc1cccc(C)c1-c1cc2nc(n1)NS(=O)(=O)c1cccc(c1)C(=O)N(Cc1cncc(N3CCC[C@@H]4CC[C@@H]43)n1)[C@H](CC1CC1)CO2 [Compound 1839],+++ (+++ is >60+)
19,Cc1cccc(C)c1-c1cc2nc(n1)NS(=O)(=O)c1cccc(c1)C(=O)N(Cc1cncc(N(C)C3CCC3)n1)[C@H](COC1CC1)CO2 [Compound 1893],+++ (+++ is >60+)
20,Cc1cccc(C)c1-c1cc2nc(n1)NS(=O)(=O)c1cccc(c1)C(=O)N(Cc1cncc(N3CCCC[C@H]3C)n1)[C@H](C[C@H]1CCCOC1)CO2 (stereo in doubt) [Compound 1942],+++ (+++ is >60+)
21,Cc1cccc(C)c1-c1cc2nc(n1)NS(=O)(=O)c1cccc(c1)C(=O)N(Cc1cncc(C3CCC3)n1)[C@H](CCC(C)(C)C)CO2 [Compound 1852],+++ (+++ is >60+)

# Same assay, conditions: 3 μM; F508del/MF-HBE cells; with 44 nM potentiator; 18-24 hours; 20% human serum
row,SMILES,HBE2 Activity at 3 μM (%)
1,CCN(CCOC)c1cncc(CN2C(=O)c3cccc(c3)S(=O)(=O)Nc3nc(cc(-c4c(C)cccc4C)n3)OC[C@H]2CC(C)(C)C)n1 [Compound 1580],+++ (+++ is >60+)
2,"Cc1cccc(C)c1-c1cc2nc(n1)NS(=O)(=O)c1cccc(c1)C(=O)N(Cc1cncc(N(C)C3CCC3)n1)[C@H](C1CC3(CCC3)C1)CO2 (single isomer, unassigned) [Compound 1321, 12-[[6-[cyclobutyl(methyl)amino]pyrazin-2-yl]methyl]-6-(2,6-dimethylphenyl)-2,2-dioxo-11-spiro[3.3]heptan-2-yl-9-oxa-2λ^6-thia-3,5,12,19-tetrazatricyclo[12.3.1.14,8]nonadeca-1(18),4(19),5,7,14,16-hexaen-13-one]",++ (++ is 30-60%)
3,Cc1cccc(C)c1-c1cc2nc(n1)NS(=O)(=O)c1cccc(c1)C(=O)N(Cc1cccc([C@@H](C)NC(=O)C(C)C)n1)[C@H](CC(C)(C)C)CO2 [Compound 1590],+++ (+++ is >60+)
4,Cc1cccc(C)c1-c1cc2nc(n1)NS(=O)(=O)c1cccc(c1)C(=O)N(Cc1ncc(OC(C)C)cn1)[C@H](CC1CCC1)[C@@H](C)O2 [Compound 1567],+++ (+++ is >60+)
5,Cc1cccc(C)c1-c1cc2nc(n1)NS(=O)(=O)c1cccc(c1)C(=O)N(Cc1cccc(N3CCC[C@@]3(C)CO)n1)[C@H](CC(C)(C)C)CO2 (stereo in doubt) [Compound 1585],+++ (+++ is >60+)
6,Cc1cccc(C)c1-c1cc2nc(n1)NS(=O)(=O)c1cccc(c1)C(=O)N(Cc1cncc(N(C)CC3(C)COC3)n1)[C@H](CC(C)(C)C)CO2 [Compound 1613],+++ (+++ is >60+)
7,COC[C@H]1C[C@H](N(C)c2cncc(CN3C(=O)c4cccc(c4)S(=O)(=O)Nc4nc(cc(-c5c(C)cccc5C)n4)OC[C@H]3CC(C)(C)C)n2)C1 [Compound 1620],+++ (+++ is >60+)
8,Cc1cccc(C)c1-c1cc2nc(n1)NS(=O)(=O)c1cccc(c1)C(=O)N(Cc1nccc(N3CC[C@H]3C)n1)[C@H](CC(C)(C)C)CO2 [Compound 1552],+++ (+++ is >60+)
9,"Cc1cccc(C)c1-c1cc2nc(n1)NS(=O)(=O)c1cccc(c1)C(=O)N(Cc1coc(N(C)C3CCC3)n1)[C@H](CC(C)(C)C)CO2 [Compound 1318, (11R)-12-[[2-[Cyclobutyl(methyl)amino]oxazol-4-yl]methyl]-6-(2,6-dimethylphenyl)-11-(2,2-dimethylpropyl)-2,2-dioxo-9-oxa-2λ^6-thia-3,5,12,19-tetrazatricyclo[12.3.1.14,8]nonadeca-1(18),4(19),5,7,14,16-hexaen-13-one]",+++ (+++ is >60+)
10,Cc1cccc(C)c1-c1cc2nc(n1)NS(=O)(=O)c1cccc(c1)C(=O)N(Cc1cncc(N3CCC3CNC(=O)OC(C)(C)C)n1)[C@H](CC(C)(C)C)CO2 (stereo partly shown) [Compound 1699],+++ (+++ is >60+)
11,Cc1cccc(C)c1-c1cc2nc(n1)NS(=O)(=O)c1cccc(c1)C(=O)N(Cc1ncc(OC(C)C)cn1)[C@H](CC1CCC1)[C@@H](C)O2 [Compound 1565],+++ (+++ is >60+)
12,CCN(c1cncc(CN2C(=O)c3cccc(c3)S(=O)(=O)Nc3nc(cc(-c4c(C)cccc4C)n3)OC[C@H]2CC(C)(C)C)n1)C1CCC1 [Compound 1579],+++ (+++ is >60+)
13,Cc1cccc(C)c1-c1cc2nc(n1)NS(=O)(=O)c1cccc(c1)C(=O)N(Cc1cncc(N3CCCC3c3ccnn3C)n1)[C@H](CC(C)(C)C)CO2 (stereo partly shown) [Compound 1605],+++ (+++ is >60+)

# Same assay, conditions: F508del/MF-HBE cells; with 44 nM potentiator; 18-24 hours; 20% human serum
row,SMILES,EC50 [nM]
1,CCN(CCOC)c1cncc(CN2C(=O)c3cccc(c3)S(=O)(=O)Nc3nc(cc(-c4c(C)cccc4C)n3)OC[C@H]2CC(C)(C)C)n1 [Compound 1580],< 1000
2,CO[C@@H]1CC[C@@H]1N(C)c1cncc(CN2C(=O)c3cccc(c3)S(=O)(=O)Nc3nc(cc(-c4c(C)cccc4C)n3)OC[C@H]2CC(C)(C)C)n1 (stereo in doubt) [Compound 1610],< 1000
3,CCN(c1cncc(CN2C(=O)c3cccc(c3)S(=O)(=O)Nc3nc(cc(-c4c(C)cccc4C)n3)OC[C@H]2CC(C)(C)C)n1)C1CCC1 [Compound 1579],< 1000

# Same assay, conditions: F508del/MF-HBE cells; with 44 nM potentiator; 18-24 hours; 20% human serum; read-out: HBE2 Max activity (%)
row,SMILES,Emax [%]
1,CCN(CCOC)c1cncc(CN2C(=O)c3cccc(c3)S(=O)(=O)Nc3nc(cc(-c4c(C)cccc4C)n3)OC[C@H]2CC(C)(C)C)n1 [Compound 1580],> 60
2,CO[C@@H]1CC[C@@H]1N(C)c1cncc(CN2C(=O)c3cccc(c3)S(=O)(=O)Nc3nc(cc(-c4c(C)cccc4C)n3)OC[C@H]2CC(C)(C)C)n1 (stereo in doubt) [Compound 1610],> 60
3,CCN(c1cncc(CN2C(=O)c3cccc(c3)S(=O)(=O)Nc3nc(cc(-c4c(C)cccc4C)n3)OC[C@H]2CC(C)(C)C)n1)C1CCC1 [Compound 1579],> 60
